Reference: EP0514540B1, “PYRROLO 2,3-d]PYRIMIDINE DERIVATIVE, PROCESS FOR PREPARING THE SAME, AND PHARMACEUTICAL PREPARATION COMPRISING THE DERIVATIVE AS ACTIVE INGREDIENT” (TEIJIN LIMITED, priority 1989, dated 1991)

How the values were obtained:
hypoxemia state = assay: Effect on partial pressure of gases in arterial blood, oral administration system (acetic acid-induced hypoxemia); assay type: in vivo, Male Wistar strain rats; details: orally administered; 2.0% acetic acid intratracheal 0.8 ml/kg; 60 min. after the administration
Protocol: Example 60: Effect on Partial Pressure Value of Gases in Arterial Blood (Oral Administration System)
Male Wistar strain rats (body weight about 250 g) fasted overnight were anesthetized with halothane inhalant, and then a cannula was inserted into the femoral artery. After the animals recovered from the anesthesia, they were again anesthetized with halothane inhalant, and then 2.0% acetic acid was intratrachealy injected at 0.8 ml/kg to induce a hypoxemia state. After the hypoxemic state was observed over about 60 min., a compound in accordance with the present invention (test substance) was orally administered to the animals. On 60 min. after the administration, the partial pressure value of gases (PaO2, PaCO2) in arterial blood were determined.

hypoxemia model animals [1] = assay: Effect on partial pressure of gases in arterial blood, injection system, Method B (acetic acid-induced hypoxemia); assay type: in vivo, Male Wister strain rats; details: 2.0% acetic acid intratracheal 0.6 ml/kg, PaO2 60-70 mmHg, intravenous continuous 0.1 mg/kg/min, after minus before administration
Protocol: (§1) Example 59: Effect on Partial Pressure Value of Gases in Arterial Blood (Injection system)
Male Wister strain rats (body about 300 g) were anesthetized with halothane inhalant, and then 2.0% acetic acid was intratrachealy injected at 0.6 ml/kg to induce a respiratory insufficiency. The animals were intra-peritoneally anesthetized with urethane-α-chloralose, and a cannula was inserted into the femoral artery. After the hypoxemic state (PaO2: 60-70 mmHg) was observed a compound in accordance with the present invention (test substance) was intravenously injected into these hypoxemia model animals by a continuous manner (0.1 mg/kg/min), and then a partial pressure value of gases (PaO2, PaCO2) in arterial blood were immediately determined.

hypoxemia model animals [2] = assay: Effect on partial pressure of gases in arterial blood, injection system, Method A (carbon powder-induced hypoxemia); assay type: in vivo, Male Wister strain rats; details: carbon powder intratracheal, PaO2 50-60 mmHg, intravenous continuous 0.1 mg/kg/min., 10 min, after minus before administration
Protocol: as §1
Male Wister strain rats (body weight about 300 g) were anesthetized intra-peritoneally with urethane, and a cannula was inserted into the respiratory tract and the femoral artery, respectively. A suspension (30-100 µm, 10 mg/ml) of carbon powder in a corn oil was intratrachealy injected to induce a hypoxemia state (PaO2; 50-60 mmHg). A compound in accordance with the present invention was intravenously injected into these hypoxemia model animals by a continuous manner (0.1 mg/kg/min., 10 min), and then a partial pressure value of gases (PaO2, PaCO2) in arterial blood were immediately determined.

SMILES	Activity for Decreasing PaCO2 ΔPaCO2 (hypoxemia state)	Activity for Increasing PaO2 ΔPaO2 (hypoxemia state)	Activity for Decreasing PaCO2 ΔPaCO2 (hypoxemia model animals [1])	Activity for Increasing PaO2 ΔPaO2 (hypoxemia model animals [1])	Activity for Decreasing PaCO2 ΔPaCO2 (hypoxemia model animals [2])	Activity for Increasing PaO2 ΔPaO2 (hypoxemia model animals [2])
C=CCNc1nc(NC(C)c2ccccc2)c2ccn(C)c2n1 (racemic) [Compound 156, (±)-2-allylamino-7-methyl-4-(1-phenylethyl-amino)-7H-pyrrolo[2,3-d]pyrimidine]	+ (+: -3 - -6 mmHg)	+ +	-9.1 mmHg	+19.7 mmHg		
C=CCNc1nc(N2CCC(OC(C)=O)CC2)c2ccn(C)c2n1 [Compound 119]					-2.6 mmHg	+7.1 mmHg
C=CCNc1nc(N2CCOCC2)c2ccn(C)c2n1 [Compound 124]	+ (+: -3 - -6 mmHg)	+ (ΔPaO2 +: +3 - +6 mmHg)	-4.0 mmHg	+5.7 mmHg		
C=CCNc1nc(N2CCN(C(c3ccc(F)cc3)c3ccc(F)cc3)CC2)c2ccn(C)c2n1 [Compound 133]					-0.6 mmHg	+6.9 mmHg
C=CCNc1nc(N2CCN(C(c3ccc(F)cc3)c3ccc(F)cc3)CC2)c2ccn(CC=C)c2n1 [Compound 143]					+1.1 mmHg	+5.0 mmHg
C=CCNc1nc(NC2CCCCC2)c2ccn(C)c2n1 [Compound 150]			-18.6 mmHg	+18.4 mmHg		
C=CCNc1nc(NC2CCCc3ccccc32)c2ccn(C)c2n1 (centres unmarked) [Compound 162]			-17.2 mmHg	+18.1 mmHg		
C=CCNc1nc(NCCc2ccccc2)c2ccn(C)c2n1 [Compound 164]			-19.2 mmHg	+15.4 mmHg		
C=CCNc1nc(N(C)C)c2ccn(C)c2n1 [Compound 165]	± (ΔPaCO2 ±: 0 - -3 mmHg)	+ (ΔPaO2 +: +3 - +6 mmHg)	+1.1 mmHg	+7.9 mmHg		
C=CCNc1nc(N(C)CCc2ccccc2)c2ccn(C)c2n1 [Compound 167]			-6.6 mmHg	+11.3 mmHg		
